Assay results: patent US20120316199A1, “COMPOSITIONS AND METHODS FOR TREATING, CONTROLLING, REDUCING, OR AMELIORATING INFLAMMATORY PAIN” (priority 2011, published 2012)
Values joined by “and” are separate entries in the source; they are usually repeats but may differ in a detail not shown here. Equal values may be shown once. “Also recorded” adds a separate entry of the source.

Key:
[1] = system: anterior-segment inflammation after anterior chamber paracentesis; assay: Rabbit paracentesis model, overall anti-inflammatory activity; type: in vivo, Rabbit (New Zealand)
[2] = system: protein concentration in the aqueous humor; assay: Protein measurement in aqueous humor, rabbit paracentesis model; type: in vivo, Rabbit (New Zealand); settings: for Protein level in aqueous humor, Mean: group mean
Method: Each rabbit was placed in a restraint device and tagged with the alphanumeric code. The formulations were instilled (50 μl) into the conjunctival sac of both eyes 180, 120, 90 and 30 min before the first paracentesis; then 15, 30, 90 min after the first paracentesis. To perform the first paracentesis the animals were anaesthetized by intravenous injection of 5 mg/kg Zoletil® (Virbac; 2.5 mg/kg tiletamine HCl and 2.5 mg/kg zolazepam HCl) and one drop of local anesthetic (Novesina®, Novartis) was administered to the eye. Anterior chamber paracentesis was performed with a 26 G needle attached to a tuberculin syringe; the needle was introduced into the anterior chamber through the cornea, taking care not to damage the tissues. Two hours after the first paracentesis, the animals were sacrificed with 0.4 ml Tanax® (Intervet International B.V.) and the second paracentesis was performed. About 100 μl of aqueous humor were removed at the second paracentesis. Aqueous humor was immediately split in four aliquots and stored at −80° C. until analysis. Then both eyes were enucleated and the iris-ciliary body was carefully excised, placed in polypropylene tubes, and stored at −80° C. until analysis.
For protein concentration determination in the aqueous humor we used the Protein Quantification Kit (Fluka; Cat. No. 77371; Lot. No. 1303129). Five microliters of aqueous humor were diluted to 100 μl with water. Twenty microliters of samples and of standards were load into a 96-well plate and recorded in a plate layout. Samples were treated following the assay procedure described in the kit. A microplate reader (GDV, Italy; model DV 990 B/V6) set at 670 nm was used for making the calibration and analyzing the samples.
Pupillary diameter, PGE2, protein, PMN, and MPO were expressed as mean±SEM. Statistical analysis was performed using one way ANOVA followed by a Newman-Keuls post hoc test. Clinical score was expressed as % of eyes and the statistical analysis was performed using Kruskal-Wallis followed by a Dunn post hoc test. P<0.05 was considered statistically significant in both cases. Prism 4 software (GraphPad Software, Inc.) was used for the analysis and graphs.

rabbit eyes = assay: Ophthalmic observations (slit lamp, McDonald Shadduck scores) in New Zealand White rabbits; type: in vivo; parameters: key to Ophthalmic Observation (Slit-Lamp): AN = Appeared normal; key to Cornea Score: CORNEA 1 = Some loss of transparency. Only the epithelium and/or the anterior half of the stoma are involved. The underlying structures are clearly visible although some cloudiness may be readily apparent
Method: Prior to placement on study, each animal underwent a pre-treatment ophthalmic examination (slit lamp and indirect ophthalmoscopy). Observations were scored according to the McDonald Shadduck system and recorded using a standardized data collection sheet.
On Days 1-31, animals received daily topical doses of the appropriate test article into the right eye. Animals were dosed four times per day, with doses administered 2 hours apart. Doses were administered using a calibrated 50-μL pipette. The eyelids were held close for 10 seconds immediately following dosing. The time of each dose administration was recorded.
Ophthalmic examinations (slit lamp) were performed prior to the first dosing on Days 5, 12, 22, 26, and 33. Ocular findings were scored according to the McDonald Shadduck system and recorded using a standardized data collection sheet.

ocular signs = assay: Clinical study after cataract surgery: ocular signs (biomicroscopy); type: in vivo, human
Source text: There were 8 treatment groups in this study, consisting of three drug doses, vehicle and three dosing frequencies (see also Table 4-1): • Group A: 1% BOL-303242-X ophthalmic suspension, two times per day (BID) • Group B: 2% BOL-303242-X ophthalmic suspension, one time per day (QD) • Group C: 2% BOL-303242-X ophthalmic suspension, BID • Group D: 2% BOL-303242-X ophthalmic suspension, four times per day (QID) • Group E: 3% BOL-303242-X ophthalmic suspension, QD • Group F: 3% BOL-303242-X ophthalmic suspension, BID • Group G: 3% BOL-303242-X ophthalmic suspension, QID • Group H: Vehicle for BOL-303242-X (divided equally into QID, BID, and QD)
Visit 1 (screening), Visit 2 (cataract surgery), Visit 3 (postoperative Day 1), Visit 4 (postoperative Day 3±1 day), Visit 5 (postoperative Day 8±1 day), Visit 6 (postoperative Day 15±1 day), Visit 7 (postoperative Day 18±1 day). Subject assessments included adverse events (AEs), concomitant medications, ocular symptoms, pinholed Snellen visual acuity (VA), intraocular pressure (IOP), ocular signs (biomicroscopy), fundoscopy, and study drug drop sensation. In addition, subject diaries were collected and reviewed for accuracy and treatment compliance.
Safety: The safety endpoints in this study were: incidence of AEs, change in IOP, ocular signs (biomicroscopy), Snellen VA, fundoscopy, study drug drop sensation assessment.

COX-2 = COX-2 protein in IL-1β-induced human conjunctival fibroblasts (Western blot); type: cell-based; settings: pretreated 2 h, then IL-1β 24 h; Western blot normalized to GAPDH (FIG. 7)
Method: Cells were washed with ice-cold PBS and lysed in cell lysis buffer (62.5 mM Tris-HCl, pH 6.8, 2% sodium dodecyl sulfate (SDS), 10% glycerol). Cells were sonicated, and centrifuged at 12,000 rpm and protein concentration was determined using the Micro BCA protein assay kit. Proteins in aliquots of cell lysate (˜20 μg protein) were separated by SDS-polyacrylamide electrophoresis (SDS-PAGE) on 10% gels and transferred to PVDF membranes. Membranes were blocked with 5% BSA and exposed to mouse anti-COX-2 antibody (Caymen). The blots were washed, and exposed to horseradish peroxidase-conjugated anti-mouse secondary antibody. After washing, blots were incubated in ECL (enhanced chemiluminescence) solutions and chemiluminescent bands were visualized using the Fluor Chem imaging system (AlphaInnotech, San Leandro, Calif.). Blots were then stripped and re-probed for glyceraldehyde 3-phosphate dehydrogenase (GAPDH) (Zymed) antibody as loading controls. The experiment was repeated 3 times. Analysis of Western blot band density for COX-2 and GAPDH in captured digital images was done using the Alpha-Innotech Chemi-Imager software (Alpha Innotech; San Leandro, Calif.). Levels of COX-2 protein were normalized to GAPDH.

[3] = Group B, 10 mg/g, treated right eye, individual animals
[4] = Group C, 5 mg/g, treated right eye, individual animals

Cc1ccc2c(NC[C@](O)(CC(C)(C)c3cc(F)cc4c3OCC4)C(F)(F)F)cccc2n1 [BOL-303242-X, mapracorat]
Activity in the rabbit paracentesis model ([1]; 0.1%, 0.5% and 1% topical formulations, preliminary conclusion): active in this model
Anti-inflammatory effectiveness compared with steroid and NSAID positive controls ([1]; rabbit paracentesis model): as effective an anti-inflammatory drug as some of the commonly accepted prior-art steroids or NSAID
Protein level in aqueous humor, Mean ([2]; 0.1% formulation, second paracentesis): 33.667 mg/mL
Protein in aqueous humor, statistical significance vs CTR ([2]; 0.5% formulation, p<0.05): statistical significance
Protein level in aqueous humor, Mean ([2]; 0.5% formulation, second paracentesis): 28.844 mg/mL
Protein level in aqueous humor, raw data ([2]; 0.5% formulation, second paracentesis, per eye, listed as BOL): 33.98 mg/mL and 33.65 mg/mL and 19.99 mg/mL and 27.11 mg/mL and 19.72 mg/mL and 36.35 mg/mL and 27.71 mg/mL and 32.24 mg/mL
Protein in aqueous humor, statistical significance vs CTR ([2]; 1% formulation, p<0.001): statistical significance
Protein level in aqueous humor, Mean ([2]; 1% formulation, second paracentesis): 21.435 mg/mL
Slit-lamp ophthalmic finding in dosed right eye (rabbit eyes; 1 mg/g suspension, one eye (Group D, No. 3043)): subconjunctival hemorrhage
Slit-lamp ophthalmic finding in dosed right eye (rabbit eyes; 10 mg/g suspension, one eye (Group B, No. 3083)): pinpoint corneal scar
Surface area of cornea involvement Score (rabbit eyes; Group B, 10 mg/g, treated right eye, animal 3083, Day 5): 1 (SURFACE AREA OF CORNEA INVOLVEMENT 1 = 1-25% area of stromal cloudiness.)
Cornea Score (rabbit eyes; Group B, 10 mg/g, treated right eye, animal 3083, Day 5, pinpoint corneal scar): 1^(2)
Conjunctival congestion Score (rabbit eyes; [3]): 1
Ophthalmic Observation (Slit-Lamp) (rabbit eyes; [3]): AN
Conjunctival congestion Score (rabbit eyes; [4]): 1
Ophthalmic Observation (Slit-Lamp) (rabbit eyes; [4]): AN
Conjunctival congestion Score (rabbit eyes; Group D, 1 mg/g, treated right eye, individual animal, Day 22): 1
Ophthalmic Observation (Slit-Lamp) (rabbit eyes; Group D, 1 mg/g, treated right eye, individual animals): AN
Ophthalmic observation associated with unilateral topical instillation (rabbit eyes; four times daily up to 31 days, BOL-303242-X 0.05, 0.25, or 0.5 mg/dose, dexamethasone 0.05 mg/dose): sporadic mild conjunctival congestion
proportions of subjects with increases in scores for anterior vitreous haze, corneal edema, corneal staining, eyelid erythema, hyphema, and posterior synechiae (ocular signs; any dose groups at any postoperative visits): No statistically significant differences
proportions of subjects with increases in scores for AC cells, AC flare, bulbar conjunctival injection, chemosis, ciliary flush, palpebral conjunctival injection (ocular signs; certain dose groups at Visits 4, 5, 7 as listed): statistically significantly lower proportions of subjects with increases in scores
Inhibition of COX-2 production by IL-1β-induced HConF (COX-2): inhibition of COX-2 production; also recorded: successfully inhibits
